The test system of assay [1] is stationary phase-induced persistent cells of MRSA strain Mu50. Kind of assay: Persister killing kinetics (CFU plating). Format: cell-based, Staphylococcus aureus. The settings on record: start 10^8 CFU/mL. As to the method:
For persister killing kinetics, cells were grown overnight until a density of OD600 nm > 5.0 was reached and then washed three times with PBS. Next, cell density was adjusted to 10^8 CFU/mL in 5 mL PBS. […] Analysis was performed as described above.

For assay [2], the system named is gram-negative bacteria. Kind of assay: MIC determination, summary over gram-negative strains. The format is cell-based. Conditions: colistin concentration of 0.1 μM (0.12 μg/mL). As to the method: (§1) The minimal inhibitory concentration (MIC) has been determined according to the CSLI guidelines (CLSI [2012]). Briefly, in a sterile polystyrene U-bottom 96-well plate, a 2-fold serial dilution ranging from 100 to 0.78 μM of testing compounds has been prepared in 50 μL MHB. A freshly inoculated S. aureus culture was grown until OD600 nm of approx. 0.6 and diluted to 10^6 CFU/mL in MHB. Finally, 50 μL of the latter cell suspension was added to each well and then incubated statically for 18–24 h at 37 °C. MIC was determined using BacTiterGlo ATP assay (Promega, Madison, WI, USA) and Tecan Infinite F200 Pro (Tecan, Männedorf, Switzerland). Moxifloxacin and DMSO were used as positive and negative control, respectively. Sublethal concentrations of colistin (0.1 μM) were used in some experiments to increase the permeability of the gram-negative cell envelope for compound testing. For E. cloacae, a broth microdilution assay was performed using a serial 2-fold dilution in 96-well flat-bottomed plates (Falcon, BD Bioscience, Heidelberg) of both PPs in broth LB medium (Roth, Karlsruhe) at a concentration range of 50–0.024 μM.

In assay [3] the test system is Escherichia coli ATCC 25922. Kind of assay: MIC determination (microbroth dilution). The settings on record: colistin alone. Format: cell-based. As to the method:
(§2) Cultures were, if not stated differently, incubated at 37 °C with aeration and shaking (150 rpm) in Mueller-Hinton broth (MHB). Bacteria were freshly incubated at the next morning from an overnight pre-culture for actively growing bacteria to an OD600 nm of approx. 0.6. To ensure persistent growth form, the bacteria were grown overnight until a density at OD600 nm > 5.0 was obtained. For biofilm growth, some colonies from a Mueller-Hinton agar (MHA) plate were picked and resuspended in MHB. Cell density has been adjusted to OD600 nm = 0.8, and cells were sown into a flat-bottom 96-well plate to be incubated statically at 37 °C with aeration. Studies were mainly performed with S. aureus Mu50.
as §1

Assay [4] has as its system Acinetobacter baumannii ATCC 747. As to the kind of experiment: MIC determination (microbroth dilution). Format: cell-based. Conditions: colistin alone. Here is the method: as §2, §1
The test system of assay [5] is actively replicating MRSA strain Mu50. As to the kind of experiment: Killing kinetics, actively replicating cells (CFU plating). Conditions: MHB, start 10^6 CFU/mL; PPs at 4× MIC, moxifloxacin 20 μM; detection limit 10^2 CFU/mL. The format is cell-based, Staphylococcus aureus. Here is the method: S. aureus cells were freshly incubated in MHB until an OD600 nm of approx. 0.6 was reached. Next, the cells were diluted to 10^6 CFU/mL in 5 mL MHB. […] At certain time points (0, 0.5, 1, 3, 6, 8, 24 h), 100 μL was removed from the culture, diluted and plated onto MHA plates. After 24-h incubation, colonies were counted and viability (expressed as colony-forming units per mL (CFU/mL)) was calculated considering the dilution factor.

Assay [6] has as its system pre-formed MRSA biofilms. Kind of assay: Biofilm viability by CFU plating. Format: cell-based, Staphylococcus aureus. The settings on record: 24 h of treatment, 4× minimal biofilm inhibitory concentration, moxifloxacin 20 μM. Here is the method:
Additionally, biofilm viability was quantified by CFU plating. Biofilms were pregrown as described above and treated for 24 h with 4× minimal biofilm inhibitory concentrations as calculated from the Resazurin reduction assay. Biofilms were dispersed by pipetting followed by sonification in a water bath. Dilutions were plated on Mueller-Hinton agar plates and incubated overnight at 37 °C.

Where “and” joins values, the source holds several entries; their conditions need not be identical. Equal entries are not always repeated.

As for `CCCCCCCCCCCCCCCCn1cc[n+](Cc2ccccc2)c1C.[I-]` [NH125, reference compound], the “time until viability reduced to the detection limit” value in assay [1] (PPs at 4× MIC, NH125 10 μM, detection limit 10^2 CFU/mL) was around 3 h.

Usually MIC stands for the least concentration at which growth counts as inhibited. Read a low MIC as a more susceptible organism. colistin [reference compound]: the “growth of gram-negative bacteria” value in assay [2] is given as “not inhibited”. Also, the MIC was 0.78 μM and 0.90 μg/mL in assay [3]; 0.78 μM and 0.90 μg/mL in assay [4].

In the case of `COc1c(N2C[C@@H]3CCCN[C@@H]3C2)c(F)cc2c(=O)c(C(=O)O)cn(C3CC3)c12` [moxifloxacin, reference compound], in assay [5], the “time until viability reached the detection limit” value was 3 h. The “decrease of viability of persistent cells after 24 h” value in assay [1] (3-bromo-PP at 4× MIC, moxifloxacin control, 24 h) was “did not show any effect”. Moreover, in assay [6], the “reduction in viable cell counts in biofilms” value was “virtually no effect”.

Source of the values: PMC8217011, “Natural brominated phenoxyphenols kill persistent and biofilm-incorporated cells of MRSA and other pathogenic bacteria” (Applied Microbiology and Biotechnology, 2020).
